Test results published in patent US6399643B1, “Spiroimidazolidine derivatives, their preparation, their use and pharmaceutical preparations formed therefrom” (Aventis Pharma Deutschland GmbH, priority 1999, dated 2002).
Where a name gives a salt, the structure may show the parent alone.

Target: T1, interaction between VCAM-1 and VLA-4 (Homo sapiens, UniProt P05556+P13612)
T1 construct: supplied in their natural form as surface molecules on human U937 cells; host or cells: human U937 cells (VLA-4, endogenous); the partner hVCAM-1(1-3)-IgG was made in house in transfected COS cells (ATCC CRL1651) and used as culture supernatant
T1 sequence (P13612 34-1032): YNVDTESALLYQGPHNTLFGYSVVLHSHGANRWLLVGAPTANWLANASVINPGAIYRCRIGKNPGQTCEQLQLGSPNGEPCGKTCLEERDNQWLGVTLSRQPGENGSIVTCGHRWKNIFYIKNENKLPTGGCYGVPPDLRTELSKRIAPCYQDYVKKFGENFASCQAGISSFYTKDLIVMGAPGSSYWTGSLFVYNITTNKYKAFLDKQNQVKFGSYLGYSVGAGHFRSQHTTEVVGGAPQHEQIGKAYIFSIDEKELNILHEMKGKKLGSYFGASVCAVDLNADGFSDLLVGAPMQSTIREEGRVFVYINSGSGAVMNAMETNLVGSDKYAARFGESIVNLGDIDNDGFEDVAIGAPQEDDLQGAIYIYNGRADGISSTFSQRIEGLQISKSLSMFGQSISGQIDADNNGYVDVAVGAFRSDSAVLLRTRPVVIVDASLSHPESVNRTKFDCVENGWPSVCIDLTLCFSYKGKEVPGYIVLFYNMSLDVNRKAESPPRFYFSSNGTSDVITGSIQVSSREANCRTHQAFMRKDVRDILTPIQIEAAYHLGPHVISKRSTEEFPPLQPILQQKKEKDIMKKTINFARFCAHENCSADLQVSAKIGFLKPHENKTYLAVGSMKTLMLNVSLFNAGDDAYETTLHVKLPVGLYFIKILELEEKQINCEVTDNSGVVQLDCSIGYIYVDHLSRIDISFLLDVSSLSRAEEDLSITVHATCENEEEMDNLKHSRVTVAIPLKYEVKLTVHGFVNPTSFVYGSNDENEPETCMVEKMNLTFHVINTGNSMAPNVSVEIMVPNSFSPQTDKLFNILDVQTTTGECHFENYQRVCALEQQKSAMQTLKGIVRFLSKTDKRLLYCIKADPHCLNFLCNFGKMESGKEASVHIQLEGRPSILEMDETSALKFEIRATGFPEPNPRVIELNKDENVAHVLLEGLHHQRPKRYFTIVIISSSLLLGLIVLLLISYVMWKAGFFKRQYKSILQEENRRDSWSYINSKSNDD
T1 sequence (P05556 21-798): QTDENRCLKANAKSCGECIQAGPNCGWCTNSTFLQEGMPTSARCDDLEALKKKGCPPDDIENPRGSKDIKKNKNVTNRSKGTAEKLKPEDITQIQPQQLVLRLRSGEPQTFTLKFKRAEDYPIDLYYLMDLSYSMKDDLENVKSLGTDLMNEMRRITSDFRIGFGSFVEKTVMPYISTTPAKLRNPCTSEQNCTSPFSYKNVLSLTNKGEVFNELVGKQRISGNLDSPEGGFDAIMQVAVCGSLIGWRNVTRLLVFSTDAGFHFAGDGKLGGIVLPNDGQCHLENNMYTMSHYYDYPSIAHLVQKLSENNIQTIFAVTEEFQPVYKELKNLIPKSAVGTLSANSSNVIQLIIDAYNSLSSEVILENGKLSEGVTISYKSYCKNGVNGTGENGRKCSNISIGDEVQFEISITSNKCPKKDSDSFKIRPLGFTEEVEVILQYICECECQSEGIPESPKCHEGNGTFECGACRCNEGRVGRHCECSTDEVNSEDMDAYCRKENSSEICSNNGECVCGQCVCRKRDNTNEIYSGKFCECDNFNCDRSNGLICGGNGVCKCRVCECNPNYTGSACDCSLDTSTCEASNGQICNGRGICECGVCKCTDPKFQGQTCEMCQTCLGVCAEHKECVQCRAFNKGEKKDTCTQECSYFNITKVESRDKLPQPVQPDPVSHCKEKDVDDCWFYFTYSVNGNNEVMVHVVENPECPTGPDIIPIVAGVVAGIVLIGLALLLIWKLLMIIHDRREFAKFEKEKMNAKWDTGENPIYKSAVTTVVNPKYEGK
Experiment: U937/VCAM-1 cell adhesion test (adhesion of U937 cells to hVCAM-1(1-3)-IgG)
Format: cell-based
Settings: inhibition of adhesion of human U937 cells (ATCC CRL 1593) to hVCAM-1(1-3)-IgG
Description: A) U937/VCAM-1 Cell Adhesion Test
The test method used for the activity of the compounds of the formula I on the interaction between VCAM-1 and VLA-4 is the assay described below, which is specific for this interaction. The cellular binding components, that is the VLA-4 integrins, are supplied in their natural form as surface molecules on human U937 cells (ATCC CRL 1593), which belong to the leukocytes group. The specific binding components used are genetically engineered recombinant soluble fusion proteins, consisting of the extracytoplasmic domain of human VCAM-1 and the constant region of a human immunoglobulin of the subclass IgG1.
Assay for the Measurement of the Adhesion of U937 Cells (ATCC CRL 1593) to hVCAM-1 (1-3)-IgG
1. Preparation of Human VCAM-1(1-3)-IgG and Human CD4-IgG
A genetic construct for the expression of the extracellular domain of human VCAM-1, combined with the genetic sequence of the heavy chain of human immunoglobulin IgG1 (hinge, CH2 and CH3 regions) (from Brian Seed, Massachusetts General Hospital, Boston, USA; cf. Damle and Aruffo, Proc. Natl. Acad. Sci. USA 1991, 88, 6403), was employed. The soluble fusion protein hVCAM-1(1-3)-IgG contained the three aminoterminal extracellular immunoglobulin-like domains of human VCAM-1 (Damle and Aruffo, Proc. Natl. Acad. Sci. USA 1991, 88, 6403). CD4-IgG (Zettlmeissl et al., DNA and Cell Biology 1990, 9, 347) served as a fusion protein for negative controls. The recombinant proteins were expressed as soluble proteins after DEAE/dextran-mediated DNA transfection in COS cells (ATCC CRL1651) according to standard procedures (Ausubel et al., Current protocols in molecular biology, John Wiley & Sons, Inc., 1994).
2. Assay for the Measurement of the Adhesion of U937 Cells to hVCAM-1(1-3)-IgG
2.1 96-well microtiter test plates (Nunc Maxisorb) were incubated at room temperature for 1 hour with 100 μl/well of a goat-anti-human IgG antibody solution (10 μg/ml in 50 mM tris, pH 9.5). After removal of the antibody solution, washing was carried out once with PBS.
2.2 150 μl/well of a blocking buffer (1% BSA in PBS) were incubated on the plates at room temperature for 0.5 hour. After removal of the blocking buffer, washing was carried out once with PBS.
2.3 100 μl per well of a cell culture supernatant of transfected COS cells were incubated on the plates at room temperature for 1.5 hours. The COS cells were transfected with a plasmid which codes for the three N-terminal immunoglobulin-like domains of VCAM-1, coupled to the Fc portion of human IgG1 (hVCAM-1 (1-3)-IgG). The content of hVCAM-1(1-3)-IgG was about 0.5-1 μg/ml. After removing the culture supernatant, washing was carried out once with PBS.
2.4 The plates were incubated at room temperature for 20 minutes with 100 μl/well of Fc receptor blocking buffer (1 mg/ml of γ-globulin, 100 mM NaCl, 100 μM MgCl2, 100 μM MnCl2, 100 μM CaCl2, 1 mg/ml of BSA in 50 mM HEPES, pH 7.5). After removal of the Fc receptor blocking buffer, washing was carried out once with PBS.
2.5 20 μl of binding buffer (100 μM NaCl, 100 μM MgCl2, 100 μM MnCl2, 100 μM CaCl2, 1 mg/ml of BSA in 50 mM HEPES, pH 7.5) were initially introduced, and the substances to be tested were added in 10 μl of binding buffer and incubated for 20 minutes. The controls used were antibodies against VCAM-1(BBT, No. BBA6) and against VLA-4(Immunotech, No. 0764).
2.6 U937 cells were incubated in Fc receptor blocking buffer for 20 minutes and then pipetted in at a concentration of 1×10^6/ml and in an amount of 100 μl per well ([…]).
2.7 The plates were slowly immersed at an angle of 45° in stop buffer (100 mM NaCl, 100 μM MgCl2, 100 μM MnCl2, 100 μM CaCl2 in 25 mM Tris, pH 7.5) and shaken off. The process was repeated.
2.8 50 μl/well of a dye solution ([…] of Hoechst Dye 33258, 4% formaldehyde, 0.5% Triton X-100 in PBS) were then incubated on the plates for 15 minutes. […]

Compound	IC50
COc1ccc([C@H](CC(=O)O)NC(=O)[C@H](CC(C)C)N2C(=O)N(Cc3ccc(NC(=O)Nc4ccccc4)cc3)C3(CCCCC3)C2=O)cc1 [Example 16, (S)-3-((S)-2-(4,4-Pentamethylene-3-(4-(3-phenylureido)benzyl)-2,5-dioxoimidazolidin-1-yl)-2-(2-methylpropyl)acetylamino)-3-(4-methoxyphenyl)propionic acid]	4 nM
COc1ccc([C@H](CC(=O)O)NC(=O)[C@H](CC2CC2)N2C(=O)N(Cc3ccc(NC(=O)Nc4ccccc4C)cc3)C3(CCCCC3)C2=O)c(OC)c1 [Example 41, (S)-3-((S)-2-(4,4-Pentamethylene-3-(4-(3-(2-methylphenyl)ureido)benzyl)-2,5-dioxoimidazolidin-1-yl)-2-cyclopropylmethylacetylamino)-3-(2,4-dimethoxyphenyl)propionic acid sodium salt]	2.3 nM
CC(C)C[C@@H](C(=O)N[C@@H](CC(=O)O)c1ccccc1)N1C(=O)N(Cc2ccc(NC(=O)Nc3ccccc3)cc2)C2(CCCCC2)C1=O [Example 1, (S)-3-((S)-2-(4,4-Pentamethylene-3-(4-(3-phenylureido)benzyl)-2,5-dioxoimidazolidin-1-yl)-2-(2-methylpropyl)acetylamino)-3-phenylpropionic acid]	3.2 nM
COc1ccc([C@H](CC(=O)O)NC(=O)[C@H](CC(C)C)N2C(=O)N(Cc3ccc(NC(=O)Nc4ccccc4)cc3)C3(CCCCC3)C2=O)c(OC)c1 [Example 18, (S)-3-((S)-2-(4,4-Pentamethylene-3-(4-(3-phenylureido)benzyl)-2,5-dioxoimidazolidin-1-yl)-2-(2-methylpropyl)acetylamino)-3-(2,4-dimethoxyphenyl)propionic acid]	2.4 nM
Cc1ccccc1NC(=O)Nc1ccc(CN2C(=O)N([C@@H](CC(C)C)C(=O)N[C@@H](CC(=O)O)c3ccc4c(c3)OCCO4)C(=O)C23CCCCC3)cc1 [Example 34, (S)-3-((S)-2-(4,4-Pentamethylene-3-(4-(3-(2-methylphenyl)ureido)benzyl)-2,5-dioxoimidazolidin-1-yl)-2-(2-methylpropyl)acetylamino)-3-(3,4-ethylenedioxyphenyl)propionic acid]	1.8 nM
COc1ccc([C@H](CC(=O)O)NC(=O)[C@H](CC(C)C)N2C(=O)N(Cc3ccc(NC(=O)Nc4ccccc4)cc3)C3(CCCCC3)C2=O)cc1OC [Example 20, (S)-3-((S)-2-(4,4-Pentamethylene-3-(4-(3-phenylureido)benzyl)-2,5-dioxoimidazolidin-1-yl)-2-(2-methylpropyl)acetylamino)-3-(3,4-dimethoxyphenyl)propionic acid]	1.6 nM
COc1ccc([C@H](CC(=O)O)NC(=O)[C@H](CC(C)C)N2C(=O)N(Cc3ccc(NC(=O)Nc4ccccc4C)cc3)C3(CCCCC3)C2=O)cc1OC [Example 33, (S)-3-((S)-2-(4,4-Pentamethylene-3-(4-(3-(2-methylphenyl)ureido)benzyl)-2,5-dioxoimidazolidin-1-yl)-2-(2-methylpropyl)acetylamino)-3-(3,4-dimethoxyphenyl)propionic acid sodium salt]	1.3 nM
COc1cc(CN2C(=O)N([C@@H](CC(C)C)C(=O)N[C@@H](CC(=O)O)c3ccc(OC)c(OC)c3)C(=O)C23CCCCC3)ccc1NC(=O)Nc1ccccc1C [Example 38, (S)-3-((S)-2-(4,4-Pentamethylene-3-(4-(3-(2-methylphenyl)ureido)-3-methoxybenzyl)-2,5-dioxoimidazolidin-1-yl)-2-(2-methylpropyl)acetylamino)-3-(3,4-dimethoxyphenyl)propionic acid tromethamine salt]	1.6 nM
Cc1ccccc1NC(=O)Nc1ccc(CN2C(=O)N([C@@H](CC(C)C)C(=O)N[C@H](C)CC(=O)O)C(=O)C23CCCCC3)cc1 [Example 9, (R)-3-((S)-2-(4,4-Pentamethylene-3-(4-(3-(2-methylphenyl)ureido)benzyl)-2,5-dioxoimidazolidin-1-yl)-2-(2-methylpropyl)acetylamino)-3-methylpropionic acid]	2.2 nM
COc1ccc([C@H](CC(=O)O)NC(=O)[C@H](CC(C)C)N2C(=O)N(Cc3ccc(NC(=O)Nc4ccccc4)cc3)C3(CCCCC3)C2=O)cc1 [Example 17, (S)-3-((S)-2-(4,4-Pentamethylene-3-(4-(3-phenylureido)benzyl)-2,5-dioxoimidazolidin-1-yl)-2-(2-methylpropyl)acetylamino)-3-(4-methoxyphenyl)propionic acid tromethamine salt]	1.9 nM

More lines, in order of falling IC50, values ahead:

IC50	Compound
3.4 nM	Cc1ccccc1NC(=O)Nc1ccc(CN2C(=O)N([C@@H](CC(C)C)C(=O)N[C@@H](CC(=O)O)c3ccc4c(c3)OCCO4)C(=O)C23CCCCC3)cc1 [Example 35, (S)-3-((S)-2-(4,4-Pentamethylene-3-(4-(3-(2-methylphenyl)ureido)benzyl)-2,5-dioxoimidazolidin-1-yl)-2-(2-methylpropyl)acetylamino)-3-(3,4-ethylenedioxyphenyl)propionic acid sodium salt]
3 nM	COc1ccc([C@H](CC(=O)O)NC(=O)[C@H](CC(C)C)N2C(=O)N(Cc3ccc(NC(=O)Nc4ccccc4)cc3)C3(CCCCC3)C2=O)c(OC)c1 [Example 19, (S)-3-((S)-2-(4,4-Pentamethylene-3-(4-(3-phenylureido)benzyl)-2,5-dioxoimidazolidin-1-yl)-2-(2-methylpropyl)acetylamino)-3-(2,4-dimethoxyphenyl)propionic acid tromethamine salt]
2.1 nM	COc1ccc([C@H](CC(=O)O)NC(=O)[C@H](CC2CC2)N2C(=O)N(Cc3ccc(NC(=O)Nc4ccccc4C)cc3)C3(CCCCC3)C2=O)c(OC)c1 [Example 40, (S)-3-((S)-2-(4,4-Pentamethylene-3-(4-(3-(2-methylphenyl)ureido)benzyl)-2,5-dioxoimidazolidin-1-yl)-2-cyclopropylmethylacetylamino)-3-(2,4-dimethoxyphenyl)propionic acid]
1.1 nM	COc1cccc([C@H](CC(=O)O)NC(=O)[C@H](CC(C)C)N2C(=O)N(Cc3ccc(NC(=O)Nc4ccccc4C)cc3)C3(CCCCC3)C2=O)c1 [Example 25, (S)-3-((S)-2-(4,4-Pentamethylene-3-(4-(3-(2-methylphenyl)ureido)benzyl)-2,5-dioxoimidazolidin-1-yl)-2-(2-methylpropyl)acetylamino)-3-(3-methoxyphenyl)propionic acid]
0.6 nM	COc1ccc([C@H](CC(=O)O)NC(=O)[C@H](CC(C)C)N2C(=O)N(Cc3ccc(NC(=O)Nc4ccccc4C)cc3)C3(CCCCC3)C2=O)cc1OC [Example 32, (S)-3-((S)-2-(4,4-Pentamethylene-3-(4-(3-(2-methylphenyl)ureido)benzyl)-2,5-dioxoimidazolidin-1-yl)-2-(2-methylpropyl)acetylamino)-3-(3,4-dimethoxyphenyl)propionic acid tromethamine salt]
